In patent US12655116B2, “Substituted isophthalic acid diamides” (Bayer Aktiengesellschaft, priority 2020, dated 2026):

Legend:
ABUTH [1] = assay: Pre-emergence herbicidal action against ABUTH; assay type: in vivo, Abutilon theophrasti
Method in brief: (§1)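 Herbicidal effect was assessed 3 weeks after treatment by visual comparison with untreated controls, 100% denoting dead plants. Aqueous WP or EC preparations had been applied at 600 to 800 l/ha with 0.2% wetting agent to the soil covering freshly sown seeds.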

ALOMY [2] = assay: Pre-emergence herbicidal action against ALOMY; assay type: in vivo, Alopecurus myosuroides
Method in brief: as §1

AMARE [3] = assay: Pre-emergence herbicidal action against AMARE; assay type: in vivo, Amaranthus retroflexus
Method in brief: as §1

AVEFA = assay: Pre-emergence herbicidal action against AVEFA; assay type: in vivo, Avena fatua
Method in brief: as §1

ECHCG [4] = assay: Pre-emergence herbicidal action against ECHCG; assay type: in vivo, Echinochloa crus-galli; details: 80 g/ha
Method in brief: as §1

LOLRI = assay: Pre-emergence herbicidal action against LOLRI; assay type: in vivo, Lolium rigidum; details: 80 g/ha
Method in brief: as §1

MATIN [5] = assay: Pre-emergence herbicidal action against MATIN; assay type: in vivo, Matricaria inodora
Method in brief: as §1

PHBPU [6] = assay: Pre-emergence herbicidal action against PHBPU; assay type: in vivo, Pharbitis purpurea; details: dosage 80 g/ha
Method in brief: as §1

POLCO = assay: Pre-emergence herbicidal action against POLCO; assay type: in vivo, Polygonum convolvulus; details: dosage 80 g/ha
Method in brief: as §1

SETVI [7] = assay: Pre-emergence herbicidal action against SETVI; assay type: in vivo, Setaria viridis; details: dosage 80 g/ha
Method in brief: as §1

VERPE = assay: Pre-emergence herbicidal action against VERPE; assay type: in vivo, Veronica persica
Method in brief: as §1

VIOTR [8] = assay: Pre-emergence herbicidal action against VIOTR; assay type: in vivo, Viola tricolor
Method in brief: as §1

DIGSA = assay: Pre-emergence herbicidal action against DIGSA; assay type: in vivo, Digitaria sanguinalis; details: Digitaria sanguinalis, 504 h
Method in brief: as §1

ABUTH [9] = assay: Post-emergence herbicidal action against ABUTH; assay type: in vivo, Abutilon theophrasti; details: visual assessment about 3 weeks after treatment vs untreated controls
Method in brief: (§2)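 Post-emergence greenhouse test; one-leaf stage, 2–3 wk post-sowing, sandy loam. Foliar spray of WP/EC in water, 600–800 l/ha, +0.2% wetting agent. Visual % action at ~3 wk vs untreated (100% = plants dead).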

ALOMY [10] = assay: Post-emergence herbicidal action against ALOMY; assay type: in vivo, Alopecurus myosuroides; details: dosage 20 g/ha, visual assessment about 3 weeks after treatment vs untreated controls
Method in brief: as §2

AMARE [11] = assay: Post-emergence herbicidal action against AMARE; assay type: in vivo, Amaranthus retroflexus; details: 20 g/ha, visual assessment about 3 weeks after treatment, 100% = plants have died, 0% = like control plants
Method in brief: as §2

MATIN [12] = assay: Post-emergence herbicidal action against MATIN; assay type: in vivo, Matricaria inodora; details: dosage 20 g/ha
Method in brief: as §2

PHBPU [13] = assay: Post-emergence herbicidal action against PHBPU; assay type: in vivo, Pharbitis purpurea
Method in brief: as §2

VIOTR [14] = assay: Post-emergence herbicidal action against VIOTR; assay type: in vivo, Viola tricolor; details: 20 g/ha
Method in brief: as §2

ECHCG [15] = assay: Post-emergence herbicidal action against ECHCG; assay type: in vivo, Echinochloa crus-galli; details: dosage 20 g/ha
Method in brief: as §2

SETVI [16] = assay: Post-emergence herbicidal action against SETVI; assay type: in vivo, Setaria viridis; details: dosage 20 g/ha
Method in brief: as §2

[17] = 80 g/ha, scored visually after 3 weeks vs untreated controls (100% = plants have died, 0% = like control plants)
[18] = 20 g/ha, scored visually after 3 weeks, 100% = plants have died, 0% = like control plants

For `CCn1nnnc1NC(=O)c1ccc(C(F)F)c(C(=O)NC(C)C)c1Cl` [Example 2-155], the pest or weed control at 80 g/ha (ABUTH [1]; Abutilon theophrasti, 504 h, 80 g/ha, scored visually after 3 weeks vs untreated controls (100% = plants have died, 0% = like control plants)) was 100%, the pest or weed control at 20 g/ha (ABUTH [1]; Abutilon theophrasti, 504 h, dosage 20 g/ha, scored visually after 3 weeks vs untreated controls, 100% = plants have died, 0% = like control plants, read-out: Pre-emergence action against ABUTH (herbicidal activity in percent)) was 100% and the pest or weed control at 80 g/ha (ALOMY [2]; Alopecurus myosuroides, 504 h, 80 g/ha, pre-emergence, scored visually after 3 weeks vs untreated controls (100% = plants have died, 0% = like control plants)) was 100%. The pest or weed control at 20 g/ha (ALOMY [2]; Alopecurus myosuroides, pre-emergence, 504 h, 20 g/ha, scored visually after 3 weeks, 100% = plants have died, 0% = like control plants) was 80%, the pest or weed control at 20 g/ha (AMARE [3]; Amaranthus retroflexus, 504 h, 20 g/ha, scored visually after 3 weeks vs untreated controls, 100% = plants have died, 0% = like control plants) was 100% and the pest or weed control at 80 g/ha (AMARE [3]; Amaranthus retroflexus, 504 h, 80 g/ha, scored visually after 3 weeks vs untreated controls, 100% = plants have died, 0% = like control plants) was 100%. It also gave a pest or weed control at 80 g/ha (AVEFA; Avena fatua, 504 h, 80 g/ha, pre-emergence) of 90%, a pest or weed control at 80 g/ha (ECHCG [4]; Echinochloa crus-galli, 504 h) of 100% and a pest or weed control at 80 g/ha (LOLRI; Lolium rigidum, 504 h) of 80%. It also gave a pest or weed control at 20 g/ha (MATIN [5]; Tripleurospermum inodorum, 504 h, dosage 20 g/ha) of 100%, a pest or weed control at 80 g/ha (MATIN [5]; Tripleurospermum inodorum, 504 h, dosage 80 g/ha) of 100% and a pest or weed control at 80 g/ha (PHBPU [6]; Ipomoea purpurea, 504 h) of 100%. For the same compound, the pest or weed control at 80 g/ha (POLCO; Fallopia convolvulus, 504 h) was 90%, the pest or weed control at 80 g/ha (SETVI [7]; Setaria viridis, 504 h) was 90% and the pest or weed control at 20 g/ha (VERPE; Veronica persica, 504 h, dosage 20 g/ha) was 80%. For the same compound, the pest or weed control at 80 g/ha (VERPE; Veronica persica, 504 h, dosage 80 g/ha) was 100%, the pest or weed control at 20 g/ha (VIOTR [8]; Viola tricolor, 504 h, dosage 20 g/ha) was 90% and the pest or weed control at 80 g/ha (VIOTR [8]; Viola tricolor, 504 h, dosage 80 g/ha) was 100%. For the same compound, the pest or weed control at 20 g/ha (DIGSA; dosage 20 g/ha) was 100%, the pest or weed control at 80 g/ha (DIGSA; dosage 80 g/ha) was 100% and the pest or weed control at 5 g/ha (ABUTH [9]; Abutilon theophrasti, 504 h, dosage 5 g/ha) was 80%. It also gave a pest or weed control at 20 g/ha (ABUTH [9]; Abutilon theophrasti, 504 h, dosage 20 g/ha) of 80%, a pest or weed control at 20 g/ha (ALOMY [10]; Alopecurus myosuroides, 504 h) of 90% and a pest or weed control at 20 g/ha (AMARE [11]; Amaranthus retroflexus, 504 h) of 90%. It also gave a pest or weed control at 20 g/ha (MATIN [12]; Tripleurospermum inodorum, 504 h) of 90%, a pest or weed control at 20 g/ha (PHBPU [13]; Ipomoea purpurea, 504 h, dosage 20 g/ha) of 80% and a pest or weed control at 20 g/ha (VIOTR [14]; Viola tricolor, 504 h) of 80%.
With `CCc1c(C(=O)Nc2nnnn2CC)ccc(C(F)(F)F)c1C(=O)NCC(F)F` [Example 2-276] the “Pre-emergence action against ABUTH (herbicidal activity)” value (ABUTH [1]; [17]) was 100%, the “Pre-emergence action against ABUTH (herbicidal activity in percent)” value (ABUTH [1]; dosage 20 g/ha, scored visually after 3 weeks vs untreated controls, 100% = plants have died, 0% = like control plants) was 100% and the “Pre-emergence action against ALOMY” value (ALOMY [2]; [18]) was 90%. For the same compound, the “Pre-emergence action against ALOMY (herbicidal activity)” value (ALOMY [2]; 80 g/ha, pre-emergence, scored visually after 3 weeks vs untreated controls (100% = plants have died, 0% = like control plants)) was 90%, the “Pre-emergence action against AMARE in %” value (AMARE [3]; 20 g/ha, scored visually after 3 weeks vs untreated controls, 100% = plants have died, 0% = like control plants) was 100% and the “Pre-emergence action against AMARE in %” value (AMARE [3]; [17]) was 100%. The “Pre-emergence action against AVEFA” value (AVEFA; [18]) was 80%, the “Pre-emergence action against AVEFA in %” value (AVEFA; 80 g/ha, pre-emergence) was 90% and the “Pre-emergence action against ECHCG in %” value (ECHCG [4]) was 80%. The “Pre-emergence action against LOLRI in %” value (LOLRI) was 80%, the “Pre-emergence action against MATIN in %” value (MATIN [5]; dosage 20 g/ha) was 100% and the “Pre-emergence action against MATIN in %” value (MATIN [5]; dosage 80 g/ha) was 100%. The “Pre-emergence action against PHBPU in %” value (PHBPU [6]) was 90%, the “Pre-emergence action against POLCO in %” value (POLCO) was 90% and the “Pre-emergence action against SETVI in %” value (SETVI [7]) was 100%. The “Pre-emergence action against VERPE in %” value (VERPE; dosage 80 g/ha) was 80%, the “Pre-emergence action against VIOTR in %” value (VIOTR [8]; dosage 20 g/ha) was 100% and the “Pre-emergence action against VIOTR in %” value (VIOTR [8]; dosage 80 g/ha) was 100%. The “Post-emergence action against ABUTH in %” value (ABUTH [9]; dosage 5 g/ha) was 80%, the “Post-emergence action against ABUTH in %” value (ABUTH [9]; dosage 20 g/ha) was 80% and the “Post-emergence action against ALOMY in %” value (ALOMY [10]) was 80%. The “Post-emergence action at 20 g/ha against AMARE in %” value (AMARE [11]) was 90%, the “Post-emergence action against ECHCG in %” value (ECHCG [15]) was 90% and the “Post-emergence action against MATIN in %” value (MATIN [12]) was 90%. The “Post-emergence action against PHBPU in %” value (PHBPU [13]; dosage 5 g/ha) was 80%, the “Post-emergence action against PHBPU in %” value (PHBPU [13]; dosage 20 g/ha) was 90% and the “Post-emergence action against SETVI in %” value (SETVI [16]) was 80%. For the same compound, the “Post-emergence action against VIOTR in %” value (VIOTR [14]) was 80%.
